pEC50, pIC50: −log10 of the molar value. Where a name gives a salt, the structure may show the parent alone. Read-outs that look alike come from different tables or passages of the source.
Columns and labels:
[1] = target: T1, Full-length wild type HIV-1 integrase (SF1) (Human immunodeficiency virus type 1 group M subtype B, UniProt P04585); test: Integrase strand-transfer scintillation proximity assay; assay type: biochemical; settings: strand-transfer SPA, 246 nM integrase, 50 nM host DNA, 37° C., 50 min; read-out: IC50
T1 construct: made in house; host or cells: E. coli BL21 (DE3)
From the text: The annealed product represents preprocessed viral ds-DNA derived from the LTR U5 sequence of the viral genome. A ds-DNA control to test for non-specific interactions was made using a 3′ di-deoxy derivative of oligonucleotide #1 annealed to oligonucleotide #2. The CA overhang at the 5′ end of the non-biotinylated strand of the ds-DNA was created artificially by using a complimentary DNA oligonucleotide shortened by 2 base pairs. This configuration eliminates the requisite 3′ processing step of the integrase enzyme prior to the strand-transfer mechanism.
The annealed product had overhanging 3′ ends of poly(dA). […] The radiolabeled product was purified using a NENSORB cartridge and stored in stabilized aqueous solution (PerkinElmer).
Reagents: Streptavidin-coated polyvinyltoluene (PVT) SPA beads were purchased from Amersham Biosciences (Piscataway, N.J.). Cesium chloride was purchased from Shelton Scientific, Inc. (Shelton, Conn.). White, polystyrene, flat-bottom, non-binding surface, 96-well plates were purchased from Corning. All other buffer components were purchased from Sigma (St. Louis, Mo.) unless otherwise indicated.
Enzyme Construction: Full-length wild type HIV-1 integrase (SF1) sequence (amino acids 1-289) was constructed in a pET24a vector (Novagen, Madison, Wis.).
Enzyme Purification: Full length wild-type HIV Integrase was expressed in E. coli BL21 (DE3) cells and induced with 1 mM isopropyl-1 thio-β-D-galactopyranoside (IPTG) when cells reached an optical density between 0.8-1.0 at 600 nm. Cells were lysed by microfluidation in 50 mM HEPES pH 7.0, 75 mM NaCl, 5 mM DTT, 1 mM 4-(2-Aminoethyl)benzenesulfonylfluoride HCl (AEBSF). Lysate was then centrifuged 20 minutes at 11 k rpm in GSA rotor in Sorvall RC-5B at 4° C. Supernant was discarded and pellet resuspended in 50 mM HEPES pH 7.0, 750 mM NaCl, 5 mM DTT, 1 mM AEBSF and homogenized in a 40 mL Dounce homogenizer for 20 minutes on ice. Homogenate was then centrifuged 20 minutes at 11 k rpm in SS34 rotor in Sorvall RC-5B at 4° C. Supernant was discarded and pellet resuspended in 50 mM HEPES pH 7.0, 750 mM NaCl, 25 mM CHAPS, 5 mM DTT, 1 mM AEBSF. Preparation was then centrifuged 20 minutes at 11 k rpm in SS34 rotor in Sorvall RC-5B at 4° C.
Supernant was then diluted 1:1 with 50 mM HEPES pH 7.0, 25 mM CHAPS, 1 mM DTT, 1 mM AEBSF and loaded onto a Q-Sepharose column pre-equilibrated with 50 mM HEPES, pH 7.0, 375 mM NaCl, 25 mM CHAPS, 1 mM DTT, 1 mM AEBSF. The flow through peak was collected and NaCl diluted to 0.1 M with 50 mM HEPES pH 7.0, 25 mM CHAPS, 1 mM DTT, 0.5 mM AEBSF and loaded onto a SP-Sepharose column pre-equilibrated with 50 mM HEPES pH 7.0, 100 mM NaCl, 25 mM CHAPS, 1 mM DTT, 0.5 mM AEBSF. After washing the column with the equilibration buffer, a 100 to 400 mM NaCl gradient was run. The eluted integrase was concentrated and run on a S-300 gel diffusion column using 50 mM HEPES pH 7.0, 500 mM NaCl, 25 mM CHAPS, 1 mM DTT, 0.5 mM AEBSF. […] All columns were run in a 4° C. cold room.
Viral DNA Bead Preparation: Streptavidin-coated SPA beads were suspended to 20 mg/mL in 25 mM 3-morpholinopropanesulfonic acid (MOPS) (pH 7.2) and 1.0% NaN3. Biotinylated viral DNA was bound to the hydrated SPA beads in a batch process by combining […] of ds-DNA to 1 mg of suspended SPA beads (10 μL of 50 μM viral DNA to 1 mL of 20 mg/mL SPA beads). The mixture was incubated at 22° C. for a minimum of 20 min. with occasional mixing followed by centrifugation at 2500 rpm for 10 min.

[2] = test system: HIV-1 RF virus in CEM-SS cells; test: HIV-1 cell protection assay (XTT dye reduction); assay type: cell-based
Experimental: Six days later, 50 μl of XTT solution (1 mg/ml XTT tetrazolium and 20 nM phenazine methosulfate) were added to the wells and the plates were reincubated for four hours. Viability, as determined by the amount of XTT formazan produced, was quantified spectrophotometrically by absorbance at 450 nm.
Data from CPE assays were expressed as the percent of formazan produced in compound-treated cells compared to formazan produced in wells of uninfected, compound-free cells. […] The 50% cytotoxicity concentration (CC50) was calculated as the concentration of compound that decreased the percentage of formazan produced in uninfected, compound-treated cells to 50% of that produced in uninfected, compound-free cells. The therapeutic index was calculated by dividing the cytotoxicity (CC50) by the antiviral activity (EC50).

[3] = Human immunodeficiency virus 1, 144 h, RF strain of HIV-1, CEM-SS cells, XTT read-out after six days, read-out: EC50
[4] = Human immunodeficiency virus 1, CEM-SS, 144 h

C[C@@H]1CN(Cc2cn(Cc3ccc(F)cc3)c3cnc4c(c23)CCN(O)C4=O)C[C@H](C)O1 [Example 45, 1-{[(2R,6S)-2,6-dimethylmorpholin-4-yl]methyl}-3-(4-fluorobenzyl)-7-hydroxy-3,7,8,9-tetrahydro-6H-pyrrolo[2,3-c]-1,7-naphthyridin-6-one]
pIC50 [1]: 8.04 | pEC50 [2, 3]: 9.35

3-(4-fluorobenzyl)-7-hydroxy-1-[(2-propoxyethoxy)methyl]-3,7-dihydro-6H-pyrrolo[23-c]-17-naphthyridin-6-one [Example 89]
pIC50 [1]: 8.00 | pEC50 ([2]; RF strain of HIV-1, CEM-SS cells, XTT read-out after six days, read-out: EC50): 9.00

COC(C)(C)CCc1cn(Cc2ccc(F)cc2)c2cnc3c(c12)CCN(O)C3=O [Example 121, 3-(4-fluorobenzyl)-7-hydroxy-1-(3-methoxy-3-methylbutyl)-3,7,8,9-tetrahydro-6H-pyrrolo[2,3-c]-1,7-naphthyridin-6-one]
pIC50 [1]: 7.85 | pEC50 [2, 3]: 9.40

CC(C)COCc1cn(Cc2ccc(F)cc2)c2cnc3c(c12)CCN(O)C3=O [Example 56, 3-(4-fluorobenzyl)-7-hydroxy-1-(isobutoxymethyl)-3,7,8,9-tetrahydro-6H-pyrrolo[2,3-c]-1,7-naphthyridin-6-one]
pIC50 [1]: 7.96 | pEC50 [2, 3]: 9.49

O=C1c2ncc3c(c(CCN4CCCC4)cn3Cc3ccc(F)cc3)c2CCN1O [Example 103, 3-(4-fluorobenzyl)-7-hydroxy-1-(2-(pyrrolidin-1-yl)ethyl)-8,9-dihydro-3H-pyrrolo[2,3-c][1,7]naphthyridin-6(7H)-one]
pIC50 [1]: 7.62 | pEC50 [2, 3]: 7.74

Cc1cccc(COCc2cn(Cc3ccc(F)cc3)c3cnc4c(c23)CCN(O)C4=O)n1 [Example 78, 3-(4-fluorobenzyl)-7-hydroxy-1-{[(6-methylpyridin-2-yl)methoxy]methyl}-3,7,8,9-tetrahydro-6H-pyrrolo[2,3-c]-1,7-naphthyridin-6-one]
pIC50 [1]: 7.96 | pEC50 [2, 3]: 9.22

CN(C)CCc1cn(Cc2ccc(F)cc2)c2cnc3c(c12)CCN(O)C3=O [Example 104, 3-(4-fluorobenzyl)-1-(2-(dimethylamino)ethyl)-7-hydroxy-8,9-dihydro-3H-pyrrolo[2,3-c][1,7]naphthyridin-6(7H)-one]
pIC50 [1]: 7.62 | pEC50 [2, 3]: 7.49

O=C1c2ncc3c(c(Cl)cn3Cc3ccc(F)cc3)c2CCN1O [Example 52, 1-chloro-3-(4-fluorobenzyl)-7-hydroxy-3,7,8,9-tetrahydro-6H-pyrrolo[2,3-c]-1,7-naphthyridin-6-one]
pIC50 [1]: 7.72 | pEC50 [2, 3]: 9.04

COC[C@H]1CCCN1C(=O)c1cn(Cc2ccc(F)cc2)c2cnc3c(c12)CCN(O)C3=O [Example 19, 3-(4-fluorobenzyl)-7-hydroxy-1-{[(2R)-2-(methoxymethyl)pyrrolidin-1-yl]carbonyl}-3,7,8,9-tetrahydro-6H-pyrrolo[2,3-c]-1,7-naphthyridin-6-one]
pIC50 [1]: 7.44 | pEC50 [2, 4]: 8.35

O=C1c2ncc3c(c(COC4CCOCC4)cn3Cc3ccc(F)cc3)c2CCN1O [Example 30, 3-(4-fluorobenzyl)-7-hydroxy-1-[(tetrahydro-2H-pyran-4-yloxy)methyl]-3,7,8,9-tetrahydro-6H-pyrrolo[2,3-c]-1,7-naphthyridin-6-one]
pIC50 [1]: 7.38 | pEC50 [2, 3]: 8.30

N#Cc1cc(Cn2ccc3c4c(ncc32)C(=O)N(O)CC4)ccc1F [Example 88, 2-fluoro-5-[(7-hydroxy-6-oxo-6,7,8,9-tetrahydro-3H-pyrrolo[2,3-c]-1,7-naphthyridin-3-yl)methyl]benzonitrile]
pIC50 [1]: 8.05 | pEC50 [2, 3]: 9.35

COCCN1CCN(Cc2cn(Cc3ccc(F)cc3)c3cnc4c(c23)CCN(O)C4=O)CC1 [Example 49, 3-(4-fluorobenzyl)-7-hydroxy-1-{[4-(2-methoxyethyl)piperazin-1-yl]methyl}-3,7,8,9-tetrahydro-6H-pyrrolo[2,3-c]-1,7-naphthyridin-6-one]
pIC50 [1]: 7.79 | pEC50 [2, 3]: 8.49

O=C1c2ncc3c(c(COCC(O)CO)cn3Cc3ccc(F)cc3)c2CCN1O (stereo in doubt) [Example 24, 1-({[(2S)-2,3-dihydroxypropyl]oxy}methyl)-3-(4-fluorobenzyl)-7-hydroxy-3,7,8,9-tetrahydro-6H-pyrrolo[2 3-c]-1,7-naphthyridin-6-one]
pIC50 [1]: 7.85 | pEC50 [2, 3]: 8.40

CCOCCCOCc1cn(Cc2ccc(F)cc2)c2cnc3c(c12)CCN(O)C3=O [Example 51, 1-[(3-ethoxypropoxy)methyl]-3-(4-fluorobenzyl)-7-hydroxy-3,7,8,9-tetrahydro-6H-pyrrolo[2,3-c]-1,7-naphthyridin-6-one hydrochloride]
pIC50 [1]: 7.77 | pEC50 [2, 4]: 9.40

O=C1c2ncc3c(c(CCNC4CCOCC4)cn3Cc3ccc(F)cc3)c2CCN1O [Example 112, 3-(4-flourobenzyl)-7-hydroxy-1-(2-(tetrahydro-2H-pyran-4-ylamino)ethyl)-8,9-dihydro-3H-pyrrolo[2,3-c][1,7]naphthyridin-6(7H)-one]
pIC50 [1]: 7.55 | pEC50 [2, 3]: 7.20

CCCCOCCOCc1cn(Cc2ccc(F)cc2)c2cnc3c(c12)CCN(O)C3=O [Example 59]
pIC50 [1]: 7.80 | pEC50 [2, 3]: 8.31

COc1cccc(CCOCc2cn(Cc3ccc(F)cc3)c3cnc4c(c23)CCN(O)C4=O)c1 [Example 66]
pIC50 [1]: 7.89 | pEC50 [2, 3]: 9.00

O=C1c2ncc3c(c(CN4CCCCCC4)cn3Cc3ccc(F)cc3)c2CCN1O [Example 98, 1-(azepan-1-ylmethyl)-3-(4-fluorobenzyl)-7-hydroxy-3,7,8,9-tetrahydro-6H-pyrrolo[2,3-c]-1,7-naphthyridin-6-one]
pIC50 [1]: 7.42 | pEC50 [2, 3]: 7.89

CN(CCCc1cn(Cc2ccc(F)cc2)c2cnc3c(c12)CCN(O)C3=O)CC1CCOCC1 [Example 105, 3-(4-fluorobenzyl)-7-hydroxy-1-{3-[methyl(tetrahydro-2H-pyran-4-ylmethyl)amino]propyl}-3,7,8,9-tetrahydro-6H-pyrrolo[2,3-c]-1,7-naphthyridin-6-one]
pIC50 [1]: 7.62 | pEC50 [2, 3]: 7.80

CN1CCN(Cc2cn(Cc3ccc(F)cc3)c3cnc4c(c23)CCN(O)C4=O)CC1 [Example 29, 3-(4-fluorobenzyl)-7-hydroxy-1-[(4-methylpiperazin-1-yl)methyl]-3,7,8,9-tetrahydro-6H-pyrrolo[2,3-c]-1,7-naphthyridin-6-one]
pIC50 [1]: 7.55 | pEC50 [2, 3]: 8.52

COCCN(C)Cc1cn(Cc2ccc(F)cc2)c2cnc3c(=O)n(O)c(C)cc3c12 [Example 102, 3-(4-fluorobenzyl)-7-hydroxy-1-{[(2-methoxyethyl)(methyl)amino]methyl}-8-methyl-3,7-dihydro-6H-pyrrolo[2,3-c]-1,7-naphthyridin-6-one]
pIC50 [1]: 7.89 | pEC50 [2, 3]: 9.60
